Laboratory results: US4263299A, “Heterocyclic coumarin derivatives” (Beecham Group Limited, priority 1978, dated 1981)
Like-named read-outs stand apart in the source and are kept apart here.

Tests used:
[1] = system: rat passive peritoneal anaphylaxis; assay: Rat passive peritoneal anaphylaxis (PPA); assay type: in vivo; settings: mean ± SEM, 3-7 rats per group
Excerpt: (a) inhibit rat passive peritoneal anaphylaxis; and
(a) Rat passive peritoneal anaphylaxis (PPA)
The method has been described previously (Ross, Janet W., Smith, H. and Spicer, Barbara A. Increased vascular permeability during passive peritoneal anaphylaxis in the rat. Int. Arch. Allergy appl. Immun. 51, 226, 1976.)
Serum containing heat-labile homocytotropic antibody was raised in rats to ovalbumin by a method similar to that described by Mota, I. (The mechanism of anaphylaxis. I. Production and biological properties of mast cell sensitising antibody. Immunology, 7, 681; 1964). Male Wistar rats of 250-300 g were given intraperitoneal injections of 0.5 ml of Bordetella pertussis vaccine (4×10^10 organisms/ml; Burroughs Wellcome, London) and subcutaneous injections of 0.5 ml of an emulsion of 100 mg of ovalbumin in 2 ml of isotonic saline and 3 ml of Freund's incomplete adjuvant. The rats were bled by cardiac puncture on day 18, the blood was pooled and the serum separated, stored at -20° C. and thawed only once before use. The serum produced PCA activity in recipient rats down to a dilution of 1:32 to 1:64 after 72 hr and persisted for several days. This activity was lost to a dilution of 1:2 by heating at 56° for 4 hr even when the sensitising period was reduced to 4 hr.
Passive peritoneal anaphylaxis
Rats were given intraperitoneal injections of 2 ml of a 1:5 dilution of the rat anti-serum in isotonic saline. 2 hr later 0.3 ml of a 5% solution of Pontamine Sky Blue (Raymond A. Lamb, London) is isotonic saline was injected intravenously, followed by an intraperitoneal injection of the test compound in 1 ml of saline; (control rats received 1 ml of saline); followed 30 sec. later by an intraperitoneal injection of 5 ml of a Tyrode solution containing 50 μg/ml heparin and 0.4 mg/ml of ovalbumin. The concentrations of the compounds were quoted as those in the 6 ml of fluid injected intraperitoneally. Extractly 5 min. after challenge the rats were stunned and bled and their peritoneal fluids were collected by opening their peritoneal cavities over funnels into polycarbonate tubes in ice. The supernatants were separated from the cellular residue by centrifuging at 150 g for 5 min. and any samples obviously contaminated with blood were discarded and the remainder were retained for estimation of dye, histamine and SRS-A. Groups of at least 5 rats were used for each dose of compound and the treatments were randomized.
Assay of peritoneal fluids
Collected peritoneal fluids were immediately cooled to 0° C. and centrifuged and the supernatant fluids assayed for dye within 2 hr. 0.5-ml samples of the supernatants were added to 1 ml of 12% trichloracetic acid and stored at -20° C. and used to assay for histamine. The remainders of the supernatant fluids were placed in a boiling water bath for 5 min. and stored frozen at -20° C. until assayed for SRS-A.
The optical densities (OD) at 625 nm of the supernatants were determined. Samples were taken from supernatants with an OD greater than 2 and diluted in Tyrode's solution before reading.
Histamine was assayed using an automated spectrofluorimetric system (Technicon Autoanalyser) by a method similar to that of Evans, D. P., Lewis, J. A. and Thomson, D. S.: (An automated fluorimetric assay for the rapid determination of histamine in biological fluids. Life Sci. 12,327, 1973).
SRS-A was assayed on the isolated guinea pig ileum preparation in the presence of atropine (5×10^-7 M) and mepyramine maleate (10^-6 M), the latter to abolish the histamine response. (Brocklehurst, W. E. The release of histamine and formulation of a slow reacting substance (SRS-A) during anaphylactic shock. J. Physiol., Lond. 151, 416, 1960). Bulked peritoneal fluids from passively sensitised and challenged rats were centrifuged, heated, stored at -20° C. in 0.5 ml aliquots, and used as a reference SRS-A standard, and arbitrarily designated as containing 10 Units per ml. […]

[2] = molecular target: T1, histamine (spasmogenic effects) on isolated guinea pig ileum (Cavia porcellus, UniProt P31389); assay: Anti-histamine activity in vitro on guinea pig ileum (pA2); settings: for Kb: read-out: pA2 Mean ± SEM (antihistamine activity in vitro) (converted)
T1 construct: isolated guinea pig ileum; from tissue; host or cells: isolated guinea pig ileum
Experimental: (b) antagonise the spasmogenic effects of histamine on isolated guinea pig ileum.
(b) Measurement of anti-histamine activity in vitro on guinea pig ileum using the […]
The pA2 of the compound was determined in a similar manner to that described by Schild, H. O. (pA, A new scale for the measurement of drug antagonism. Brit. J. Pharmacol. 2, 189, 1947).

mice = assay: Acute intravenous toxicity in mice; assay type: in vivo, mouse
[3] = contact time 10.0 min, (part assay) for 4d

T1 sequence (P31389 whole entry): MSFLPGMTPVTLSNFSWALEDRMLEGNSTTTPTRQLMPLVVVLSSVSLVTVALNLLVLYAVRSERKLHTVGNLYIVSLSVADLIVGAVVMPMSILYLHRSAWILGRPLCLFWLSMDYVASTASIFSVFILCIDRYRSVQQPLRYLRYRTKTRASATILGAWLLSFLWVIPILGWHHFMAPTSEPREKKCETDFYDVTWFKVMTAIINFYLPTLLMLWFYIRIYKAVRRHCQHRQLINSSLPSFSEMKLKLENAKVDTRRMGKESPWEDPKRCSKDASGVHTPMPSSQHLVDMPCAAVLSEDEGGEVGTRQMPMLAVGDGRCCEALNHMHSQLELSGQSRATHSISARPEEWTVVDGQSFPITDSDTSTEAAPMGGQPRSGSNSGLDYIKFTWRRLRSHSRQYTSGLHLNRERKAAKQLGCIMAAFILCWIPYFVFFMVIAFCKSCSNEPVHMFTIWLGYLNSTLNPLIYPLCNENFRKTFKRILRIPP

Compound: O=c1oc2cc(OCCCN3CCN(Cc4ccc(Cl)cc4)CC3)ccc2c(O)c1[N+](=O)[O-] [Example 1f, 1-(4-Chlorobenzyl)-4-[3-(4-hydroxy-3-nitrocoumarin-7-yloxy)propyl]piperazine]
- Dye concentration in peritoneal fluid as % of that in control rats not given compound ([1]; 2 × 10^-6 M injected i.p.): 32.1 ± 3.6%
- Histamine concentration in peritoneal fluid as % of that in control rats not given compound ([1]; 2 × 10^-6 M injected i.p.): 28.4 ± 3.4%
- SRSA concentration in peritoneal fluid as % of that in control rats not given compound ([1]; 2 × 10^-6 M injected i.p.): 62.5 ± 17.2%
- Dye concentration in peritoneal fluid as % of that in control rats not given compound ([1]; 2 × 10^-7 M injected i.p.): 88.1 ± 8.3%
- Histamine concentration in peritoneal fluid as % of that in control rats not given compound ([1]; 2 × 10^-7 M injected i.p.): 75.8 ± 7.5%
- SRSA concentration in peritoneal fluid as % of that in control rats not given compound ([1]; 2 × 10^-7 M injected i.p.): 71.8 ± 14.8%
- Dye concentration in peritoneal fluid as % of that in control rats not given compound ([1]; 2 × 10^-8 M injected i.p.): 100 ± 16.7%
- Histamine concentration in peritoneal fluid as % of that in control rats not given compound ([1]; 2 × 10^-8 M injected i.p.): 99.6 ± 8.3%
- SRSA concentration in peritoneal fluid as % of that in control rats not given compound ([1]; 2 × 10^-8 M injected i.p.): 100 ± 14.8%
- Kb ([2]; contact time 0.5 min): 15.8 nM
- Kb ([2]; contact time 2.0 min): 2.51 nM
- Kb [2, 3]: 0.631 nM
- Deaths in mice at the high dose (mice; mice, intravenous, 300 mg/kg, group of three): all animals died
- Deaths in mice during four days (mice; mice, intravenous, 1, 3 and 10 mg/kg, three groups of ten): No deaths occurred
- Deaths in mice at the two lower doses (mice; mouse, in vivo): none

Compound: O=c1oc2cc(OCC(O)CN3CCN(Cc4ccc(Cl)cc4)CC3)ccc2c(O)c1[N+](=O)[O-] (centres unmarked) [Example 2d, 1-(4-Chlorobenzyl)-4-[2-hydroxy-3-(4-hydroxy-3-nitrocoumarin-7-yloxy)propyl]piperazine]
- Dye concentration in peritoneal fluid as % of that in control rats not given compound ([1]; 2 × 10^-5 M injected i.p.): 36 ± 4%
- Histamine concentration in peritoneal fluid as % of that in control rats not given compound ([1]; 2 × 10^-5 M injected i.p.): 13 ± 0.9%
- SRSA concentration in peritoneal fluid as % of that in control rats not given compound ([1]; 2 × 10^-5 M injected i.p.): 47 ± 11%
- Dye concentration in peritoneal fluid as % of that in control rats not given compound ([1]; 2 × 10^-6 M injected i.p.): 46 ± 4%
- Histamine concentration in peritoneal fluid as % of that in control rats not given compound ([1]; 2 × 10^-6 M injected i.p.): 23 ± 1.0%
- SRSA concentration in peritoneal fluid as % of that in control rats not given compound ([1]; 2 × 10^-6 M injected i.p.): 65 ± 13%
- Kb ([2]; contact time 0.5 min): 50.1 nM
- Kb ([2]; contact time 2.0 min): 20 nM
- pA2 Mean ± SEM (antihistamine activity in vitro) [2, 3]: 8.3

Compound: CCCc1c(OCC(O)CN2CCN(Cc3ccc(Cl)cc3)CC2)ccc2c(O)c([N+](=O)[O-])c(=O)oc12 (centres unmarked) [Example 3d, 1-(4-chlorobenzyl)-4-[2-hydroxy-3-(4-hydroxy-3-nitro-8-n-propylcoumarin-7-yloxy)propyl]piperazine]
- Dye concentration in peritoneal fluid as % of that in control rats not given compound ([1]; 2 × 10^-5 M injected i.p.): 47 ± 6%
- Histamine concentration in peritoneal fluid as % of that in control rats not given compound ([1]; 2 × 10^-5 M injected i.p.): 15 ± 2%
- SRSA concentration in peritoneal fluid as % of that in control rats not given compound ([1]; 2 × 10^-5 M injected i.p.): 75 ± 9%
- Dye concentration in peritoneal fluid as % of that in control rats not given compound ([1]; 2 × 10^-6 M injected i.p.): 79 ± 9%
- Histamine concentration in peritoneal fluid as % of that in control rats not given compound ([1]; 2 × 10^-6 M injected i.p.): 55 ± 9%
- SRSA concentration in peritoneal fluid as % of that in control rats not given compound ([1]; 2 × 10^-6 M injected i.p.): 81 ± 6%
- Kb ([2]; contact time 0.5 min): 25.1 nM
- Kb ([2]; contact time 2.0 min): 10 nM
- pA2 Mean ± SEM (antihistamine activity in vitro) [2, 3]: 8.4

Compound: O=c1oc2cc(OCCN3CCN(Cc4ccc(Cl)cc4)CC3)ccc2c(O)c1[N+](=O)[O-] [Example 4d, 1-(4-Chlorobenzyl)-4-[2-(4-hydroxy-3-nitrocoumarin-7-yloxy)ethyl]piperazine]
- Dye concentration in peritoneal fluid as % of that in control rats not given compound ([1]; 2 × 10^-4 M injected i.p.): 40 ± 7%
- Histamine concentration in peritoneal fluid as % of that in control rats not given compound ([1]; 2 × 10^-4 M injected i.p.): 11 ± 0.9%
- SRSA concentration in peritoneal fluid as % of that in control rats not given compound ([1]; 2 × 10^-4 M injected i.p.): 26 ± 6%
- Dye concentration in peritoneal fluid as % of that in control rats not given compound ([1]; 2 × 10^-5 M injected i.p.): 65 ± 11%
- Histamine concentration in peritoneal fluid as % of that in control rats not given compound ([1]; 2 × 10^-5 M injected i.p.): 39 ± 8%
- SRSA concentration in peritoneal fluid as % of that in control rats not given compound ([1]; 2 × 10^-5 M injected i.p.): 73 ± 7%
- Kb ([2]; contact time 0.5 min): 63.1 nM
- Kb ([2]; contact time 2.0 min): 50.1 nM
- Kb [2, 3]: ~126 nM

Compound: O=c1oc2cc(CN3CCN(Cc4ccc(Cl)cc4)CC3)ccc2c(O)c1[N+](=O)[O-] [Example 5e, 1-(4-Chlorobenzyl)-4-[(4-hydroxy-3-nitrocoumarin-7-yl)methyl]piperazine]
- Dye concentration in peritoneal fluid as % of that in control rats not given compound ([1]; 2 × 10^-4 M injected i.p.): 28 ± 9%
- Histamine concentration in peritoneal fluid as % of that in control rats not given compound ([1]; 2 × 10^-4 M injected i.p.): 17 ± 3%
- Dye concentration in peritoneal fluid as % of that in control rats not given compound ([1]; 2 × 10^-5 M injected i.p.): 88 ± 14%
- Histamine concentration in peritoneal fluid as % of that in control rats not given compound ([1]; 2 × 10^-5 M injected i.p.): 31 ± 2%
- SRSA concentration in peritoneal fluid as % of that in control rats not given compound ([1]; 2 × 10^-5 M injected i.p.): 67 ± 15%
- Dye concentration in peritoneal fluid as % of that in control rats not given compound ([1]; 2 × 10^-6 M injected i.p.): 103 ± 13%
- Histamine concentration in peritoneal fluid as % of that in control rats not given compound ([1]; 2 × 10^-6 M injected i.p.): 93 ± 18%
- SRSA concentration in peritoneal fluid as % of that in control rats not given compound ([1]; 2 × 10^-6 M injected i.p.): 94 ± 10%
- Kb ([2]; contact time 0.5 min): 2000 nM
- Kb ([2]; contact time 2.0 min): 2000 nM
- pA2 Mean ± SEM (antihistamine activity in vitro) [2, 3]: 5.6

Compound: O=c1oc2cc(OCCCN3CCN(Cc4ccccc4)CC3)ccc2c(O)c1[N+](=O)[O-] [Example 6d, 1-Benzyl-4-[3-(4-hydroxy-3-nitrocoumarin-7-yloxy)propyl]piperazine]
- Dye concentration in peritoneal fluid as % of that in control rats not given compound ([1]; 2 × 10^-4 M injected i.p.): 67 ± 10%
- Histamine concentration in peritoneal fluid as % of that in control rats not given compound ([1]; 2 × 10^-4 M injected i.p.): 12 ± 1.0%
- SRSA concentration in peritoneal fluid as % of that in control rats not given compound ([1]; 2 × 10^-4 M injected i.p.): 55 ± 5%
- Dye concentration in peritoneal fluid as % of that in control rats not given compound ([1]; 2 × 10^-5 M injected i.p.): 91 ± 12%
- Histamine concentration in peritoneal fluid as % of that in control rats not given compound ([1]; 2 × 10^-5 M injected i.p.): 56 ± 8%
- SRSA concentration in peritoneal fluid as % of that in control rats not given compound ([1]; 2 × 10^-5 M injected i.p.): 86 ± 14%
- Kb ([2]; contact time 0.5 min): 79.4 nM
- Kb ([2]; contact time 2.0 min): 25.1 nM
- pA2 Mean ± SEM (antihistamine activity in vitro) [2, 3]: 7.9
